Results: patent US20230348475A1, “IMIDAZOPYRIDAZINE AND IMIDAZOPYRAZINE COMPOUNDS AS INHIBITORS OF CDK7” (THE TRANSLATIONAL GENOMICS RESEARCH INSTITUTE, priority 2020, published 2023)
Where a name gives a salt, the structure may show the parent alone.

What was measured:
CDK7/CycH/MAT1 = CDK7/CycH/MAT1 (Homo sapiens, UniProt P50613); test: Kinase Glo (ADP-Glo) biochemical assay, CDK7; details: CDK7/CycH/MAT1 40 ng, ATP 1 μM, 60 minutes at RT, luminescence
Method: Materials: • Assay Buffer: 50 mM HEPES, 3 mM MgCl2, 3 mM MnCl2, 1 mM DTT, 3 μM Na3VO4, pH 7.5 • Substrate RB • CTF Peptide (ProQinase #: 0040-0000-6) • Enzymes • CDK7/CycH/MAT1 (ProQinase #: 0366-0360-4) • ADP-Glo™ Assay (Promega #: V9101) • ATP: 10 mM • ADP-Glo™ Reagent • Kinase Detection Reagent • 384-well white assay plates
A ten point serial dilution of compound was prepared at 5X concentration in assay buffer with the final assay concentrations starting at 30 μM, 10 μM, 3 μM, 1 μM . . . 0 μM. Enzyme, substrate, and ATP were used at 40 ng, 200 ng (or 400 ng)* and 1 μM, respectively. The assay plate was set up by mixing the components in a total reaction volume of 10 μL per well. The plate was centrifuged gently for 10 seconds and incubated at room temperature (RT) for 60 minutes in the dark. The ADP-Glo Reagent and kinase detection reagent were added and incubated as recommended. The reaction was quantified by measuring luminescence on the Perkin Elmer Envision plate reader.

[1] = test system: A673 Ewingsarcoma cell line; test: Cell viability assay (Cell Titer Glo), A673; type: cell-based; details: 72 hour incubation
Method: (§1) Materials: • Cell Lines (Treated according to ATCC guidelines) • Cell Titer Glo (Promega Cat #G7572) • DMSO • 96-well White Tissue Culture Treated Plates (Perkin Elmer Cat #60005680)
(§2) Cells were seeded in a white 96-well tissue culture treated plate at a density of 1500 cells in 90 μL of media per well and allowed to settle overnight. A ten point serial dilution of drugs was prepared at 10×concentration in media with the final assay concentrations starting at 30 μM, 10 μM, 3 μM, 1 μM, 0.3 μM . . . 0 μM. A dilution of DMSO was included as a control. The assay was set up by adding 10 μL of the corresponding drug to each well in duplicate, followed by a 72 hour incubation at 37° C., 5% CO2. Cell viability was quantified by adding 90 μL of Cell Titer Glo to each well and incubating at room temperature for 10 minutes. The reaction was quantified by measuring luminescence using the Envision Plate Reader. Data was analyzed using Graphpad Prism 7 software.

[2] = test system: A2780 ovarian cancer cell line; test: Cell viability assay (Cell Titer Glo), A2780; type: cell-based; details: 72 hour incubation
Method: as §1, §2

[3] = test system: HPAC pancreatic cancer cell line; test: Cell viability assay (Cell Titer Glo), HPAC; type: cell-based; details: Table 7a, pancreatic cancer cell line, 72 hour incubation
Method: as §1, §2

[4] = test system: MiaPaCa2 pancreatic cancer cell line; test: Cell viability assay (Cell Titer Glo), MiaPaCa2; type: cell-based; details: Table 7a, pancreatic cancer cell line, 72 hour incubation
Method: as §1, §2

[5] = test system: MDA-MB-231 breast cancer cell line; test: Cell viability assay (Cell Titer Glo), MDA-MB-231; type: cell-based; details: Table 7a, breast cancer cell line, 72 hour incubation
Method: as §1, §2

[6] = test system: Kasumi1 leukemia cancer cell line; test: Cell viability assay (Cell Titer Glo), Kasumi1; type: cell-based; details: 72 hour incubation
Method: as §1, §2

[7] = Homo sapiens, Kasumi 1, Table 7a

Chain of CDK7/CycH/MAT1 (P50613 whole entry): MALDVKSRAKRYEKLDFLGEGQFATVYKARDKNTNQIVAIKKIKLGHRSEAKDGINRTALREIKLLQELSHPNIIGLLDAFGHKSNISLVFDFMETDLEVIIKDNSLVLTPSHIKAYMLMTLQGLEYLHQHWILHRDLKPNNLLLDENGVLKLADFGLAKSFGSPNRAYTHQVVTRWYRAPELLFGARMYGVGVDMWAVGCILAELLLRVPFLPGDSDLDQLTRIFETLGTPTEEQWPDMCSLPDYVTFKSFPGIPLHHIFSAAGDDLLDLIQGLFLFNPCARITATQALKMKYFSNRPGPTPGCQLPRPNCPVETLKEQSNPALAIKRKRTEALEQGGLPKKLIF
Chain of CDK7/CycH/MAT1 (P51946 whole entry partner): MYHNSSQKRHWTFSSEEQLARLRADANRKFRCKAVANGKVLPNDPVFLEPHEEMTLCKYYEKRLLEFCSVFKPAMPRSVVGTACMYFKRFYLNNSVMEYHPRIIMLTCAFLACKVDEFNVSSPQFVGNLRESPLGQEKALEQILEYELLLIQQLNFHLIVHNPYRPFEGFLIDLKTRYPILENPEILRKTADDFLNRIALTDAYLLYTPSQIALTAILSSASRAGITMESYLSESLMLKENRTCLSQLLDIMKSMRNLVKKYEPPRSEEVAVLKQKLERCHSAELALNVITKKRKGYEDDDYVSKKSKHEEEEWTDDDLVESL
Chain of CDK7/CycH/MAT1 (P51948 whole entry partner): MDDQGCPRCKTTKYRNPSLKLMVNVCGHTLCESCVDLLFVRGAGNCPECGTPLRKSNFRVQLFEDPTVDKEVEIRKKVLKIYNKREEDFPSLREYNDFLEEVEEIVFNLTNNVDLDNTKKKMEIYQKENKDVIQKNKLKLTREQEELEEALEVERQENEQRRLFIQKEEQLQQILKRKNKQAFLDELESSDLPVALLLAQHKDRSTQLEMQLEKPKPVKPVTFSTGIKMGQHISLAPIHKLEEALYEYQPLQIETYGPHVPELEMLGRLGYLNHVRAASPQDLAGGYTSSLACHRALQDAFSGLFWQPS

Structure (SMILES) | IC50 (CDK7/CycH/MAT1) [nM] | IC50 ([1]; Homo sapiens, A673, Table 7a) [µM] | IC50 ([2]; Homo sapiens, A2780, Table 7a) [µM] | IC50 ([3]; Homo sapiens, HPAC) [µM] | IC50 ([4]; Homo sapiens, MIA PaCa-2) [µM] | IC50 ([5]; Homo sapiens, MDA-MB-231) [µM] | IC50 [6, 7] [µM] | IC50 ([1]; Table 7a) [µM] | IC50 ([2]; Table 7a) [µM] | IC50 [3] [µM] | IC50 [4] [µM] | IC50 ([6]; Table 7a) [µM] | IC50 [5] [µM]
CC(C)c1cnc2c(NCc3ccccc3OC(F)(F)F)cc(SC3CCCNC3)nn12 (stereo not drawn) [Compound 37, 3-isopropyl-6-(piperidin-3-ylthio)-N-(2-(trifluoromethoxy)benzyl)imidazo[1,2-b]pyridazin-8-amine] | < 100 | 1 to 5 | 1 to 5 | 1 to 5 | 1 to 5 | 1 to 5 | 1 to 5 |  |  |  |  |  | 
CC(C)c1cnc2c(NCc3ccccc3OC(F)(F)F)cc(NC3CCNCC3)nn12 [Compound 38, hydrochloride] | < 100 | 1 to 5 | 1 to 5 | 1 to 5 | 1 to 5 | 1 to 5 | 1 to 5 |  |  |  |  |  | 
CC(C)c1cnc2c(Nc3cccc(F)c3)cc(O[C@H]3CCCNC3)nn12 [Compound 39, (S)-N-(3-fluorophenyl)-3-isopropyl-6-(piperidin-3-yloxy)imidazo[1,2-b]pyridazin-8-amine hydrochloride] | < 100 | 1 to 5 | 1 to 5 | 1 to 5 | 1 to 5 | 1 to 5 | 1 to 5 |  |  |  |  |  | 
COc1ccccc1CNc1cc(NC2CCNCC2)nn2c(C(C)C)cnc12 [Compound 40, 3-isopropyl-N8-(2-methoxybenzyl)-N6-(piperidin-4-yl)imidazo[1,2-b]pyridazine-6,8-diamine hydrochloride] | < 100 | 1 to 5 | 1 to 5 | 1 to 5 | 1 to 5 | 1 to 5 | > 5 |  |  |  |  |  | 
CC(C)c1cnc2c(NCc3ccccc3OC(F)(F)F)cc(OC3CCNCC3)nn12 [Compound 43, 3-isopropyl-6-(piperidin-4-yloxy)-N-(2-(trifluoromethoxy)benzyl)imidazo[1,2-b]pyridazin-8-amine hydrochloride] | < 100 | 1 to 5 | 1 to 5 | 1 to 5 | 1 to 5 | 1 to 5 | 1 to 5 |  |  |  |  |  | 
CC(C)c1cnc2c(Nc3cccc(F)c3)cc(SC3CCNCC3)nn12 [Compound 44, N-(3-fluorophenyl)-3-isopropyl-6-(piperidin-4-ylthio)imidazo[1,2-b]pyridazin-8-amine hydrochloride] | < 100 | < 1 | < 1 | < 1 | < 1 | < 1 | < 1 |  |  |  |  |  | 
CC(C)c1cnc2c(Nc3cccc(F)c3)cc(NC3CCNCC3)nn12 [Compound 45, N8-(3-fluorophenyl)-3-isopropyl-N6-(piperidin-4-yl)imidazo[1,2-b]pyridazine-6,8-diamine hydrochloride] | < 100 | 1 to 5 | 1 to 5 | 1 to 5 | < 1 | 1 to 5 | 1 to 5 |  |  |  |  |  | 
CC(C)c1cnc2c(NCc3ccccc3OC(F)(F)F)cc(NC[C@@H]3CNCCO3)nn12 [Compound 46, (S)-3-isopropyl-N6-(morpholin-2-ylmethyl)-N8-(2-(trifluoromethoxy)benzyl)imidazo[1,2-b]pyridazine-6,8-diamine hydrochloride] | < 100 | 1 to 5 | 1 to 5 | 1 to 5 | 1 to 5 | 1 to 5 | > 5 |  |  |  |  |  | 
COc1ccccc1CNc1nc(SC2CCNCC2)cn2c(C(C)C)cnc12 [Compound 51, 3-isopropyl-N-(2-methoxybenzyl)-6-(piperidin-4-ylthio)imidazo[1,2-a]pyrazin-8-amine formate] | < 100 |  | 1 to 5 | 1 to 5 | 1 to 5 | > 5 |  |  |  |  |  |  | 
CC(C)c1cnc2c(NCc3ccccc3C(F)(F)F)cc(SC3CCNCC3)nn12 [Compound 53, 3-isopropyl-6-(piperidin-4-ylthio)-N-(2-(trifluoromethyl)benzyl)imidazo[1,2-b]pyridazin-8-amine hydrochloride] | < 100 |  | < 1 | < 1 | < 1 | 1 to 5 |  |  |  |  |  |  | 

Next, values leading:

IC50 (CDK7/CycH/MAT1) [nM] | IC50 ([1]; Homo sapiens, A673, Table 7a) [µM] | IC50 ([2]; Homo sapiens, A2780, Table 7a) [µM] | IC50 ([3]; Homo sapiens, HPAC) [µM] | IC50 ([4]; Homo sapiens, MIA PaCa-2) [µM] | IC50 ([5]; Homo sapiens, MDA-MB-231) [µM] | IC50 [6, 7] [µM] | IC50 ([1]; Table 7a) [µM] | IC50 ([2]; Table 7a) [µM] | IC50 [3] [µM] | IC50 [4] [µM] | IC50 ([6]; Table 7a) [µM] | IC50 [5] [µM] | Structure (SMILES)
< 100 | 1 to 5 | 1 to 5 | 1 to 5 | 1 to 5 | 1 to 5 |  |  |  |  |  |  |  | CC(C)c1cnc2c(NCc3ccccc3)cc(S[C@@H]3CCCNC3)nn12 (single isomer, unassigned) [Compound 41, hydrochloride]
< 100 | 1 to 5 | 1 to 5 | 1 to 5 | 1 to 5 | 1 to 5 | 1 to 5 |  |  |  |  |  |  | c1ccc(CNc2cc(SC3CCCNC3)nn3c(C4CC4)cnc23)cc1 (stereo not drawn) [Compound 22, N-benzyl-3-cyclopropyl-6-(piperidin-3-ylthio)imidazo[1,2-b]pyridazin-8-amine formate]
< 100 |  |  |  |  |  |  | 1 to 5 | 1 to 5 | 1 to 5 | 1 to 5 | 1 to 5 | 1 to 5 | c1ccc(CNc2cc(SC3CCCNC3)nn3c(C4CC4)cnc23)cc1 (stereo not drawn) [Compound 23, N-benzyl-3-cyclopropyl-6-(piperidin-3-ylthio)imidazo[1,2-b]pyridazin-8-amine dihydrochloride salt]
< 100 | 1 to 5 | < 1 | 1 to 5 | 1 to 5 | 1 to 5 | 1 to 5 |  |  |  |  |  |  | CC(C)c1cnc2c(N[C@@H](C)c3ccccc3)cc(SC3CCNCC3)nn12 [Compound 24, (S)-3-isopropyl-N-(1-phenylethyl)-6-(piperidin-4-ylthio)imidazo[1,2-b]pyridazin-8-amine]
< 100 | 1 to 5 | 1 to 5 | 1 to 5 | > 5 | > 5 | 1 to 5 |  |  |  |  |  |  | CC(C)c1cnc2c(NCc3ccccc3)nc(SC3CCCNC3)cn12 (stereo not drawn) [Compound 26, N-benzyl-3-isopropyl-6-(piperidin-3-ylthio)imidazo[1,2-α]pyrazin-8-amine formate salt]
< 100 | 1 to 5 | 1 to 5 | 1 to 5 | 1 to 5 | > 5 | 1 to 5 |  |  |  |  |  |  | CC(C)c1cnc2c(N[C@@H](C)c3ccccc3)nc(SC3CCNCC3)cn12 [Compound 32, (S)-3-isopropyl-N-(1-phenylethyl)-6-(piperidin-4-ylthio)imidazo[1,2-α]pyrazin-8-amine dihydrochloride]
< 100 | < 1 | < 1 | < 1 | < 1 | 1 to 5 | 1 to 5 |  |  |  |  |  |  | CC(C)c1cnc2c(NCc3ccccc3OC(F)(F)F)cc(SC3CCNCC3)nn12 [Compound 33]
< 100 | > 5 | 1 to 5 | 1 to 5 | 1 to 5 | > 5 | 1 to 5 |  |  |  |  |  |  | CC(C)c1cnc2c(N[C@@H](C)c3ccccc3)nc(SC3CCCNC3)cn12 (stereo partly drawn) [Compound 34, 3-isopropyl-N-((S)-1-phenylethyl)-6-(piperidin-3-ylthio)imidazo[1,2-α]pyrazin-8-amine hydrochloride]
< 100 | < 1 | < 1 | < 1 | < 1 | 1 to 5 | 1 to 5 |  |  |  |  |  |  | COc1ccccc1CNc1cc(SC2CCNCC2)nn2c(C(C)C)cnc12 [Compound 35, hydrochloride]
< 100 | 1 to 5 | < 1 | 1 to 5 | 1 to 5 | 1 to 5 | 1 to 5 |  |  |  |  |  |  | COc1ccccc1CNc1cc(SC2CCCNC2)nn2c(C(C)C)cnc12 (stereo not drawn) [Compound 36, hydrochloride]
